Source: ChEMBL document CHEMBL1140688, “Sulfenamides as prodrugs of NH-acidic compounds: a new prodrug option for the amide bond” (Bioorg Med Chem Lett, 2007)

Experiments:
Format in all cases: physicochemical
Details in all cases: buffer
[1] = Chemical stability assessed as half life at pH 6.5
[2] = Chemical stability assessed as half life at pH 7.0
[3] = Chemical stability assessed as half life at pH 6.0

half-life [1]: 81.6 h
half-life [2]: 50.4 h
half-life [3]: 214 h
SMILES: CCOC(=O)[C@@H](N)CSNC(=O)N1c2ccccc2C=Cc2ccccc21
